Measurements reported in patent US20070142317A1, “Topical composition for treatment of skin disorders” (QLT USA, Inc., priority 2003, published 2007).
Several values for one entry are separate records, joined by “and”; a condition that tells them apart may be missing. Equal values may be shown once. Read-outs that look alike come from different tables or passages of the source.

How the values were obtained:
[1] = tested on: U937 monocytoid cells; assay: TUNEL assay, dAd, adenosine and adenine dose ranging (Example 24); type: cell-based; details: for % FITC Shift / % PI Shift: 2 days
Protocol: U937 monocytoid cells were cultured in the presence of dAd at various concentrations of dAd (0, 50, 75, 100, 250 and 1000 micromoles/liter). The cells were incubated in dAd for 2 days. At the end of the treatment period, the cells were harvested for analysis by a TUNEL assay, a flow-cytometry-based method to quantify the percentage of cells that have undergone apoptosis. The level of apoptosis expressed as “% FITC shift”. The level of cell cycle arrest is expressed as “% PI shift”. As a positive control, the cells were exposed to 5 mM camptothecin for 2 days.

[2] = tested on: Jurkat T cells; assay: TUNEL apoptosis assay, sequential exposure to dCF then dAd (Example 21); type: cell-based; details: Camptothecin 5 uM, positive control
Protocol: (§1) Thus, it is hypothesized that the sequential exposure of the cells to dCF, followed by deoxyadenosine (dAd) will lead to greater levels of apoptosis than dCF alone. […] The cells were then incubated in dAd for 2 more days. At the end of the treatment period, the cells were harvested for analysis by a TUNEL assay, a flow-cytometry-based method to quantify the percentage of cells that have undergone apoptosis. The level of apoptosis is expressed as “% FITC shift”. As a positive control, the cells were exposed to 5 mM camptothecin for 2 days.

[3] = tested on: U937 monocytoid cells; assay: as above; type: cell-based; details: Camptothecin 5 uM, positive control
Protocol: as §1

[4] = tested on: U937 monocytoid cells; assay: TUNEL assay, simultaneous exposure to dCF and dAd (Example 22); type: cell-based; details: camptothecin positive control, 2 days (5 mM printed elsewhere in the source)
Protocol: Methods Simultaneous Exposure—U937 monocytoid cells were cultured in the presence of 0, 1, 2.5, 10, 20, 50, 100, 150, 200, and 250 μM dAdo for 2 days. […] At the end of the treatment period, the cells were harvested for analysis by a TUNEL assay, a flow-cytometry-based method to quantify the percentage of cells that have undergone apoptosis. The level of apoptosis is expressed as “% FITC shift”. As a positive control, the cells were exposed to 5 mM camptothecin for 2 days.

[5] = tested on: U937 monocytoid cells; assay: TUNEL assay, dAd added at different times after dCF wash-out (Example 22); type: cell-based; details: 0 μM dCF + camptothecin positive control, time after wash-out 0 hr (5 mM printed elsewhere in the source)
Protocol: At 0, 6, 24, and 48 hours, 50 μM dAd was added and the cells were incubated for an additional 2 days. At the end of the treatment period, the cells were harvested for analysis by a TUNEL assay, a flow-cytometry-based method to quantify the percentage of cells that have undergone apoptosis. The level of apoptosis is expressed as “% FITC shift”. As a positive control, the cells were exposed to 5 mM camptothecin for 2 days.

[6] = tested on: U-937 cells; assay: Cytokine secretion by ELISA (Example 31); type: cell-based; details: for effect on suppressing the production of IL-6: 46 hours
Protocol: (§2) In a search for a topical agent that can locally deplete levels of T-cells in the skin, apoptotic compounds were evaluated for their mechanisms of action. The ability that […] induce apoptosis by the same mechanisms was examined by cytokine secretion. […] Caspase-3 and cytokine (IL-2, IL-6, TNF, and IFN-γ) levels were determined and compared to controls at 23 and 46 hours. FdA was incorporated to evaluate the effect of the halogen group and Ara-C for its overlapping mechanisms of action. […] At the end of the treatment period, the cells were harvested and Caspase-3 induction was determined using a flow-cytometry-based method to quantify the percentage of cells that induced Caspase-3. The level of apoptosis is expressed as “% FITC shift”. Cytokine secretion (IL-2, IL-6, TNF, and IFN-γ) was measured at the same time by ELISA and is expressed in pg/mL. […]

[7] = tested on: Jurkat cells; assay: Cytokine secretion by ELISA (Example 31); type: cell-based
Protocol: In a search for a topical agent that can locally deplete levels of T-cells in the skin, apoptotic compounds were evaluated for their mechanisms of action. The ability that […] induce apoptosis by the same mechanisms was examined by cytokine secretion. […] At the end of the treatment period, the cells were harvested and Caspase-3 induction was determined using a flow-cytometry-based method to quantify the percentage of cells that induced Caspase-3. The level of apoptosis is expressed as “% FITC shift”. Cytokine secretion (IL-2, IL-6, TNF, and IFN-γ) was measured at the same time by ELISA and is expressed in pg/mL.

[8] = tested on: U937 monocytoid cells; assay: TUNEL assay, dAd added at different times after dCF wash-out (Example 22); type: cell-based; details: 0 μM dCF + camptothecin positive control, time after wash-out 0 hr (5 mM printed elsewhere in the source); remark: listed apart in the source
[9] = biological target: T1, ribonucleotide reductase (RNR) (Homo sapiens, UniProt P23921); details: cited from earlier work
T1 sequence (P23921 1-792): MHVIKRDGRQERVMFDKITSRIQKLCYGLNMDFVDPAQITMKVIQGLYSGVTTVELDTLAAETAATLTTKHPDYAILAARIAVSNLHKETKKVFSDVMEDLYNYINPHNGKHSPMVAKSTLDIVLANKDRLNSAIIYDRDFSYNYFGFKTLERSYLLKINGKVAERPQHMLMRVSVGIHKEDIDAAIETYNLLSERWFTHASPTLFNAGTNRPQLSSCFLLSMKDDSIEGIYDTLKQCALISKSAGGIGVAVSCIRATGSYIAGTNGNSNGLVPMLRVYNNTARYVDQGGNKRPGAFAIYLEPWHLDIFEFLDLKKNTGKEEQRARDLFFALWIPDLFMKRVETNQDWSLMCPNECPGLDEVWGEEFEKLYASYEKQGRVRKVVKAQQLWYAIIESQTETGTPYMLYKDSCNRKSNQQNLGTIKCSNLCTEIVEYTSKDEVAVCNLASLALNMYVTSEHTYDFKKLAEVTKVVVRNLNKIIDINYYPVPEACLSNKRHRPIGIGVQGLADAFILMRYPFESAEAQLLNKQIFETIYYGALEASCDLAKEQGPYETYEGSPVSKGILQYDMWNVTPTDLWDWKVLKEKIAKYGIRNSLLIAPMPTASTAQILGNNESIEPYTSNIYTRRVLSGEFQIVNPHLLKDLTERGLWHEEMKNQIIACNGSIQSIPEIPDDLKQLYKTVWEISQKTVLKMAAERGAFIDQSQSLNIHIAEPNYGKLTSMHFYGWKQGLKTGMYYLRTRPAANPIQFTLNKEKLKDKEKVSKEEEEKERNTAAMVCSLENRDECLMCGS

[10] = biological target: dCK (Homo sapiens, UniProt P27707); details: read-out: Km for dCK; cited from earlier work
[11] = tested on: Jurkat cells; assay: Caspase-3 induction by flow cytometry (Example 31); type: cell-based; details: drug 1 μM, PHA-activated cells
Protocol: as §2

[12] = tested on: U-937 cells; assay: Caspase-3 induction by flow cytometry (Example 31); type: cell-based; details: drug 1 μM, LPS-activated cells
Protocol: as §2

[13] = systemic, deamination by CDA; cited from earlier work
[14] = biological target: ADA (Homo sapiens, UniProt P00813); details: cited from earlier work
[15] = for systemic exposure per day: topical 1.0% (10 mg/g), 7% systemic absorption
Text: (§3) Systemic absorption is a concern, because of the potential for serious adverse events, such as lymphopenia and renal toxicity. At oncology doses, these adverse reactions are usually minimized, but the therapeutic index is narrow. Another factor that plays a role in the safety of the formulation is the amount of product administered each day. Approximately 4 grams, 12 grams, and 40 grams of a topical formulation are estimated to cover 10%, 30%, and 100% of the body surface area.
as §3
as §3, with “Calculations of safety margins have been performed, based upon this assumption and the known toxicity profile of F-Ara-A when administered IV for oncology indications. Systemic” for “Systemic”
as §3

[16] = Camptothecin 5 uM, positive control
[17] = 23 hr, drug 5 μM, positive control
[18] = 46 hr, drug 5 μM, positive control
[19] = 23 hr, drug 1 μM, LPS-activated cells
[20] = 46 hr, drug 1 μM, LPS-activated cells

Sequence of dCK (P27707 whole entry, species assumed): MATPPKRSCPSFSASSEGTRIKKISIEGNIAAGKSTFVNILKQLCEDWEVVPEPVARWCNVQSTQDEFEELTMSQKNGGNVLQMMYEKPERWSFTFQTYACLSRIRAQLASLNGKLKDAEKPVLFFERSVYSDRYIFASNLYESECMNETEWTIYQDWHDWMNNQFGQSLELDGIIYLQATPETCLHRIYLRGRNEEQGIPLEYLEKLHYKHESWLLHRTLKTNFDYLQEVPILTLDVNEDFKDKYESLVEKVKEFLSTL
Sequence of ADA (P00813 whole entry, species assumed): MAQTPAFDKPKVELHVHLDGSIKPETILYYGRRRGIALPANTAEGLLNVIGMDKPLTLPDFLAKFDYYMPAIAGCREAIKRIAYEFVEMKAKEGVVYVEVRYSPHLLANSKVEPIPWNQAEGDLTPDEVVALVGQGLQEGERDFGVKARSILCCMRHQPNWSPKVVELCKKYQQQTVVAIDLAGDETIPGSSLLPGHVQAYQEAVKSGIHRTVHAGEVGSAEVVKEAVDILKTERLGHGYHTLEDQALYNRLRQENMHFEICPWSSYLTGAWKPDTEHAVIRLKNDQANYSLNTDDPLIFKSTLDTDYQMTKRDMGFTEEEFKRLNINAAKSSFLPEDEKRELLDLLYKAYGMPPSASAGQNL

SMILES: Nc1[nH]cnc2ncnc1-2 [Adenine, 1H-Purin-6-amine]
- effect on apoptosis or cell cycle ([1]; at 1000 uM): slight hint of an effect
- % FITC Shift ([1]; drug 50 uM, no dCF): 0.4%
- % PI Shift ([1]; drug 50 uM, no dCF): 2.0%
- % FITC Shift ([1]; drug 75 uM, no dCF): 0.6%
- % PI Shift ([1]; drug 75 uM, no dCF): 2.4%
- % FITC Shift ([1]; drug 100 uM, no dCF): 0.3%
- % PI Shift ([1]; drug 100 uM, no dCF): 2.5%
- % FITC Shift ([1]; drug 250 uM, no dCF): 0.7%
- % PI Shift ([1]; drug 250 uM, no dCF): 3.4%
- % FITC Shift ([1]; drug 1000 uM, no dCF): 2.9%
- % PI Shift ([1]; drug 1000 uM, no dCF): 9.5%
- effect on apoptosis or cell cycle ([1]; up to 250 uM): little or no effect

SMILES: Nc1ncnc2c1ncn2[C@@H]1O[C@H](CO)[C@@H](O)[C@H]1O [Adenosine, 9-β-D-Ribofuranosyl-9H-purin-6-amine]
- effect on apoptosis or cell cycle ([1]; at 1000 uM): slight hint of an effect
- % FITC Shift ([1]; drug 50 uM, no dCF): 0.7%
- % PI Shift ([1]; drug 50 uM, no dCF): 1.7%
- % FITC Shift ([1]; drug 75 uM, no dCF): 0.6%
- % PI Shift ([1]; drug 75 uM, no dCF): 2.1%
- % FITC Shift ([1]; drug 100 uM, no dCF): 0.6%
- % PI Shift ([1]; drug 100 uM, no dCF): 2.0%
- % FITC Shift ([1]; drug 250 uM, no dCF): 0.6%
- % PI Shift ([1]; drug 250 uM, no dCF): 1.9%
- % FITC Shift ([1]; drug 1000 uM, no dCF): 2.9%
- % PI Shift ([1]; drug 1000 uM, no dCF): 7.9%
- effect on apoptosis or cell cycle ([1]; up to 250 uM): little or no effect

SMILES: CC[C@@]1(O)C(=O)OCc2c1cc1n(c2=O)Cc2cc3ccccc3nc2-1 [Camptothecin]
- % FITC Shift [2]: 80.2%
- % FITC Shift [3]: 93.4%
- % FITC Shift [4]: 79.5%
- % PI Shift [4]: 43.4%
- % FITC Shift [5]: 84.3%
- % FITC Shift [1, 16]: 72.8%
- % PI Shift [1, 16]: 32.2%
- Cytokine Secretion IL-6 pg/ml Mean of 3 Replicates [6, 17]: 0 pg/mL
- Cytokine Secretion IL-6 pg/ml Mean of 3 Replicates [6, 18]: 0 pg/mL
- Cytokine Secretion IL-2 pg/ml Mean of 3 Replicates [7, 17]: 0 pg/mL
- Cytokine Secretion IL-2 pg/ml Mean of 3 Replicates [7, 18]: 0 pg/mL
- % PI Shift [8]: 29.2%

SMILES: Nc1nc(Cl)nc2c1ncn2[C@H]1C[C@H](O)[C@@H](COP(=O)(O)OP(=O)(O)OP(=O)(O)O)O1 [CdATP, 2-chloro-2′-deoxyadenosine-5′-triphosphate]
- IC50 [9]: 60 nM

SMILES: Nc1nc(Cl)nc2c1ncn2[C@@H]1O[C@H](CO)[C@@H](O)[C@@H]1F [Clofarabine]
- Km [10]: 5 µM

SMILES: Nc1nc(F)nc2c1ncn2C1OC(COP(=O)(O)OP(=O)(O)OP(=O)(O)O)C(O)C1O (centres unmarked) [F-Ara-ATP]
- IC50 [9]: ~600 nM

SMILES: Nc1nc(F)nc2c1ncn2[C@H]1C[C@H](O)[C@@H](CO)O1 [FdA, 2-fluoro-2′-deoxyadenosine]
- Caspase-3 Induction % FITC Shift - Mean of 3 Replicates ([11]; 23 hr): 75%
- Caspase-3 Induction % FITC Shift - Mean of 3 Replicates ([11]; 46 hr): 95%
- Caspase-3 Induction % FITC Shift - Mean of 3 Replicates ([12]; 23 hr): 67%
- Caspase-3 Induction % FITC Shift - Mean of 3 Replicates ([12]; 46 hr): 51%
- Cytokine Secretion IL-6 pg/ml Mean of 3 Replicates [6, 19]: 7 pg/mL
- effect on suppressing the production of IL-6 ([6]; drug 1 μM): little effect
- Cytokine Secretion IL-6 pg/ml Mean of 3 Replicates [6, 20]: 7 pg/mL and 8 pg/mL
- Cytokine Secretion IL-2 pg/ml Mean of 3 Replicates ([7]; 23 hr, drug 1 μM, PHA-activated cells): 41 pg/mL
- Cytokine Secretion IL-2 pg/ml Mean of 3 Replicates ([7]; 46 hr, drug 1 μM, PHA-activated cells): 72 pg/mL
- IL-2 concentration ([7]; Jurkat cells activated by PHA, 46 hours, drug 1 μM): 72 pg/mL

SMILES: Nc1ccn([C@@H]2O[C@H](CO)[C@@H](O)C2(F)F)c(=O)n1 [Gemcitabine]
- half-life [13]: 10 to 20 min

SMILES: COc1nc(N)nc2c1ncn2[C@@H]1O[C@H](CO)[C@@H](O)[C@@H]1O [Nelarabine]
- Km to ADA relative to that of adenosine [14]: less than 1%

SMILES: Nc1ccn([C@@H]2O[C@H](CO)[C@@H](O)[C@@H]2O)c(=O)n1 [ara-C, Cytosine 1β-D-Arabinofuranoside]
- Cytokine Secretion IL-6 pg/ml Mean of 3 Replicates [6, 19]: 7 pg/mL
- effect on suppressing the production of IL-6 ([6]; drug 1 μM): little effect
- Cytokine Secretion IL-6 pg/ml Mean of 3 Replicates [6, 20]: 7 pg/mL
- times safer than the oncology dose [15]: 9643
- systemic exposure per day ([15]; 10% BSA (4 grams)): 2.8 mg
- systemic exposure per day ([15]; 30% BSA (12 grams)): 8.4 mg
- systemic exposure per day ([15]; 100% BSA (40 grams)): 28 mg

SMILES: Nc1ccn(C2OC(COP(=O)(O)OP(=O)(O)O)C(O)C2(F)F)c(=O)n1 (centres unmarked) [gemcitabine diphosphate]
- IC50 [9]: 200 nM
